Experimental data: patent publication US6413947B1, “Anilide derivative, production and use thereof” (Takeda Chemical Industries, Ltd., priority 1997, dated 2002)
Where a name gives a salt, the structure may show the parent alone.

SMILES	melting point [°C]
COc1ccccc1N1CCN(Cc2ccc(NC(=O)C3=Cc4cc(-c5ccc(C)cc5)ccc4CC3)cc2)CC1 [Compound 41, N-[4-[1—(2-methoxyphenyl)-4-piperazinylmethyl]phenyl]-7—(4-methylphenyl)-3,4-dihydronaphthalene-2-carboxamide]	202 to 205
Cc1ccc(-c2ccc3c(c2)C=C(C(=O)Nc2ccc(CNc4cccnc4)cc2)CC3)cc1 [Compound 47, 7—(4-methylphenyl)-N-[4-[N-(3-pyridyl)aminomethyl]phenyl]-3,4-dihydronaphthalene-2-carboxamide]	212 to 214
Cc1ccc(-c2cccc(/C=C/C(=O)Nc3ccc(C(O)c4cccc[n+]4[O-])cc3)c2)cc1 (stereo not shown) [Compound 80, (E)-N-[4-[hydroxy(1-oxido-2-pyridyl)methyl]-phenyl]-3—(4-methylphenyl)cinnamamide]	165 to 167
Cc1ccc(-c2ccc3c(c2)C=C(C(=O)Nc2ccc(CNC(CO)CO)cc2)CC3)cc1 [Compound 48, N-[4-[(1,3-dihydroxy-2-propyl)aminomethyl]phenyl]-7—(4-methylphenyl)-3,4-dihydronaphthalene-2-carboxamide]	189 to 193
Cc1ccc(-c2ccc3c(c2)C=C(C(=O)Nc2ccc(CN4CCN(c5ncccn5)CC4)cc2)CC3)cc1 [Compound 42, 7—(4-methylphenyl)-N-[4-[1—(2-pyrimidyl)-4-piperazinylmethyl]-phenyl]-3,4-dihydronaphthalene-2-carboxamide]	203 to 204
Cc1ccc(-c2ccc3c(c2)C=C(C(=O)Nc2ccc(CN4CCC(Cc5ccccc5)CC4)cc2)CC3)cc1 [Compound 35, N-[4—(4-benzyl-piperidinomethyl)phenyl]-7—(4-methylphenyl)-3,4-dihydronaphthalene-2-carboxamide]	199 to 201

Results, then the compound that gave them:

melting point [°C]	SMILES
147 to 148	Cc1ccc(-c2ccc3c(c2)C=C(C(=O)Nc2ccc(CNCc4ccccc4)cc2)CCO3)cc1 [Compound 117, N-(4—((benzylamino)methyl)phenyl)-7—(4-methylphenyl)-2,3-dihydro-1-benzoxepine-4-carboxamide]
166 to 167	O=C(C=Cc1cccc(-c2ccc(F)cc2)c1)Nc1ccc(CN2CCCCC2)cc1 [Compound 83, 1—(4—(3—(4-fluoro-phenyl)cinnamoylamino)benzyl)piperidine]
216 to 219	Cc1ccc(-c2ccc3c(c2)C=C(C(=O)Nc2ccc(C[N+](C)(C)CCCO)cc2)CCO3)cc1.[I-] [Compound 240, dimethyl-3-hydroxypropyl-(N-(7-(4-methylphenyl)-2,3-dihydro-1-benzoxepin-4-carbonyl)-4-aminobenzyl)ammonium iodide]
202 to 205	Cc1ccc(-c2ccc3c(c2)C=C(C(=O)Nc2ccc(C(O)c4ccccn4)cc2)C(C)O3)cc1 (stereo not shown) [Compound 202, N-[4-[hydroxy(2-pyridyl)methyl]-phenyl]-6—(4-methylphenyl)-2-methyl-2H-1-benzopyran-3-carboxamide]
129 to 131	CCOCCCN(C)Cc1ccc(NC(=O)C2=Cc3cc(-c4ccc(OCC)cc4)ccc3N(C)CC2)cc1 [Compound 319, N-(4-((N-(3-ethoxypropyl)-N-methylamino)methyl)phenyl)-7-(4-ethoxyphenyl)-1-methyl-2,3-dihydro-1-benzazepine-4-carboxamide]
225 to 227	CCCP(=O)(CCC)Cc1ccc(NC(=O)/C=C/c2cccc(-c3ccc(C)cc3)c2)cc1 [Compound 194, (E)-N-(4-dipropylphosphorylmethylphenyl)-3—(4-methylphenyl)cinnamamide]
200 to 204	CCOc1ccc(-c2ccc3c(c2)C=C(C(=O)Nc2ccc(C[N+](C)(C)C4CCOCC4)cc2)CCO3)cc1 (as salt: chloride) [Compound 250, N-(4-(((7-(4-ethoxyphenyl)-2,3-dihydro-1-benzoxepin-4-yl)carbonyl)amino)benzyl)-N,N-dimethyl-N-(4-tetrahydropyranyl)ammonium chloride]
